Experimental data: patent US9555061B2, “Synthesis and analysis of compounds capable of inducing differentiation of human mesenchymal stems cells into hepatocytes” (National University Corporation Torrori University, priority 2011, dated 2017)

Tests used:
Format in all cases: cell-based, human
[1] = system: Wnt/β-catenin signaling pathway; test: Ability of inhibiting Wnt/β-catenin pathway, luciferase assay (UE7T-13); conditions: 8 days after the treatment; pTCF4-CMV-luciferase reporter
Description: FIG. 3 is a schematic diagram illustrating how to establish a human mesenchymal stem cell stably expressing a β-catenin/TCF4/luciferase reporter gene. FIG. 3 illustrates how to construct pTCF4-CMVpro-GL4.20 plasmid by using a luciferase expression vector. The pTCF4-CMVpro-GL4.20 plasmid contains three TCF4 sequences […] upstream of a CMV promoter to express luciferase. In addition, pCMVpro-GL4.20 plasmid was constructed as a control. The resulting plasmids were each linearized, introduced into UE7T-13 by electroporation, and selected using puromycin (0.25 μg/ml) supplemented in a medium. Puromycin-resistant cells were cloned and used for a luciferase assay.
The cell line having a vector stably expressing luciferase was seeded on a 24-well plate, and was cultured at 37° C. At the next day, the medium was changed to a medium containing IC-2, etc., and the cell line was further cultured at 37° C. After that, at days 1, 4, and 8, a luciferase assay system (Promega) was used and the luciferase activity was read with a fluorescence plate reader (ARVO) at a wavelength of 556 nm.

UE7T-13 cells = test: Immunocytochemistry of hepatocyte markers (UE7T-13); conditions: day 16
Method: A cover glass (22×22 mm, […]) was sterilized with 70% EtOH and placed in a 6-well plate. Next, cells were seeded on the cover glass and cultured in a medium containing IC-2, etc. At 8, 16, and […] after the initiation of the culture, the cells were washed twice with PBS. Then, the cells were treated with 4% paraformaldehyde/PBS for 20 min and fixed onto the cover glass. After that, the cells were permeated with 0.2% Triton X-100 for 10 min. Subsequently, the cells were blocked with 3% BSA/PBS for 30 min. An anti-albumin antibody, anti-C/EBP antibody, anti-AFP antibody, or anti-CYP1A1 antibody was used as a primary antibody, and the cells were incubated therewith at 4° C. overnight. Next, an Alexa Fluoro 488 goat anti-mouse antibody or Alexa Fluoro 594 goat anti-rabbit antibody was used as a secondary antibody, and the cells were incubated therewith at room temperature for 1 h. DAPI was used for nuclear staining. Thereafter, 50% glycerol diluted with PBS was used to mount the cover glass. Finally, the cells were observed under a confocal laser microscope. The cells which had been cultured with 0.1% DMSO were used as a control.

[2] = system: bone marrow-derived mesenchymal stem cells; test: RT-PCR of albumin in sorted bone marrow-derived mesenchymal stem cells; conditions: 45 μM
Method: Cells were seeded on a 6-well plate at a cell density of 1.8×10^4 cells/cm^2. This day was designated as day 0. At day 1 corresponding to the next day, the medium was changed to a medium containing IC-2 (at a final concentration of 25, 35, or 45 μM) or 0.1% DMSO. At day 4, the medium was changed in a manner similar to that at day 1, and at day 8, the cells were reseeded and subcultured at a cell density of 1.8×10^4 cells/cm^2. After that, the medium was replaced twice during 8 days, and the cells were subcultured every 8 days. Then, the similar operation was carried out until day 24. At days 8, 16, and 24 after the initiation of the induction, TRIzol (Invitrogen) was used to extract total RNA according to the attached instruction. After the extraction, deoxyribonuclease (Nippon Gene) was added, and the mixture was incubated at 37° C. for 30 min to remove DNA. In a reverse transcription reaction, SuperScriptII Reverse Transcriptase (Invitrogen) and Oligo(dT)15 primer were added to 1 μg of RNA to convert it into cDNA. In a RT-PCR method, the cDNA was diluted by 5 times. Next, 1 μl of the cDNA was used as a template. Then, rTaq DNA polymerase (TOYOBO) was used to amplify the cDNA. MQ water was used as a negative control. cDNA from Huh-7 or UE7T-13 cells was used as a positive control.
In order to determine hepatocyte differentiation markers, levels of expression of albumin were measured. […]

## (6S,9aS)-6-phenyl-8-naphthalen-1-ylmethyl-4,7-dioxo-hexahydro-pyrazino[1,2-a]pyrimidine-1-carbocylic acid benzylamide [IC-2]
[1]
  concentration that significantly inhibited the Wnt/β-catenin signaling pathway: ≥ 15 µM
UE7T-13 cells
  levels of expression of albumin, C/EBPα, CYP1A1, and CYP3A4: remarkably increased
[2]
  albumin expression compared with 0.1% DMSO: remarkable increase
